In ChEMBL document CHEMBL1201862, “PubChem BioAssay data set” (2004):
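Tested at 5 concentrations; 48 h exposure; 96-well plates; endpoints linearly interpolated, else capped at highest concentration. GI50 is the concentration that inhibits growth by half.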 The source made the active and inactive calls. Cut-off read from the data, not from the text of the source: active = GI50 up to about 1.1 µM and inactive = higher.

Experiments:
Experiment in all cases: inhibition of tumour cell growth, NCI panel, 48 h
OVCAR-5 = test system: OVCAR-5
HT-29 = test system: HT-29
SK-MEL-2 = test system: SK-MEL-2
MDA-MB-435 = test system: MDA-MB-435
EKVX = test system: EKVX
RXF 393 = test system: RXF 393
SK-MEL-28 = test system: SK-MEL-28
A549 = test system: A549
SF-295 = test system: SF-295
NCI-H226 = test system: NCI-H226
OVCAR-4 = test system: OVCAR-4
UACC-257 = test system: UACC-257
SNB-75 = test system: SNB-75
OVCAR-3 = test system: OVCAR-3
M14 = test system: M14
NCI-H522 = test system: NCI-H522
SK-OV-3 = test system: SK-OV-3
UO-31 = test system: UO-31
UACC-62 = test system: UACC-62
HOP-92 = test system: HOP-92

| SMILES | GI50 (OVCAR-5) | GI50 (HT-29) | GI50 (SK-MEL-2) | GI50 (MDA-MB-435) | GI50 (EKVX) | GI50 (RXF 393) | GI50 (SK-MEL-28) | GI50 (A549) | GI50 (SF-295) | GI50 (NCI-H226) | GI50 (OVCAR-4) | GI50 (UACC-257) | GI50 (SNB-75) | GI50 (OVCAR-3) | GI50 (M14) | GI50 (NCI-H522) | GI50 (SK-OV-3) | GI50 (UO-31) | GI50 (UACC-62) | GI50 (HOP-92) |
| --- | --- | --- | --- | --- | --- | --- | --- | --- | --- | --- | --- | --- | --- | --- | --- | --- | --- | --- | --- | --- |
| CCOC1CCN(C(=O)c2ccccc2)O1 (stereo unspecified) | > 10 µM (inactive) | > 10 µM (inactive) | > 10 µM (inactive) | > 10 µM (inactive) | > 10 µM (inactive) | > 10 µM (inactive) | > 10 µM (inactive) | > 10 µM (inactive) | > 10 µM (inactive) | > 10 µM (inactive) | > 10 µM (inactive) | > 10 µM (inactive) | > 10 µM (inactive) | > 10 µM (inactive) | > 10 µM (inactive) | > 10 µM (inactive) | > 10 µM (inactive) | > 10 µM (inactive) | – | – |
| COC(=O)C1=C(C(=O)OC)SC(=C2SC3=C(SC(=C4SCCS4)S3)S2)S1 | > 100 µM (inactive) | > 100 µM (inactive) | > 100 µM (inactive) | > 100 µM (inactive) | > 100 µM (inactive) | > 100 µM (inactive) | > 100 µM (inactive) | > 100 µM (inactive) | > 100 µM (inactive) | > 100 µM (inactive) | – | > 100 µM (inactive) | 0.0302 µM (active) | – | > 100 µM (inactive) | > 100 µM (inactive) | > 100 µM (inactive) | > 100 µM (inactive) | > 100 µM (inactive) | > 100 µM (inactive) |
| COc1ccc(C2=CC(c3ccc4c(c3)OCO4)c3c(c4ccccc4oc3=O)O2)cc1OC (stereo unspecified) | 4.85 µM (inactive) | 0.536 µM (active) | – | 0.366 µM (active) | 4.16 µM (inactive) | 0.764 µM (active) | > 55.2 µM (inactive) | 2.78 µM (inactive) | 0.374 µM (active) | 0.546 µM (active) | 98.4 µM (inactive) | > 100 µM (inactive) | 0.51 µM (active) | – | 3.54 µM (inactive) | 0.486 µM (active) | 0.859 µM (active) | 2.55 µM (inactive) | 0.424 µM (active) | – |
| O=C(O)CN(CC(=O)O)Cc1cc2c(cc1O)Oc1cc(O)c(CN(CC(=O)O)CC(=O)O)cc1C21OC(=O)c2ccccc21 [OFTASCEINE] | > 100 µM (inactive) | > 100 µM (inactive) | > 100 µM (inactive) | > 100 µM (inactive) | > 100 µM (inactive) | – | > 100 µM (inactive) | > 100 µM (inactive) | > 100 µM (inactive) | > 100 µM (inactive) | > 100 µM (inactive) | > 100 µM (inactive) | > 100 µM (inactive) | > 100 µM (inactive) | > 100 µM (inactive) | > 100 µM (inactive) | > 100 µM (inactive) | > 100 µM (inactive) | > 100 µM (inactive) | > 100 µM (inactive) |
| CCOC1CN(C)/C(=N\c2cccc3ccccc23)S1 (stereo unspecified) | > 10 µM (inactive) | > 10 µM (inactive) | – | > 10 µM (inactive) | > 10 µM (inactive) | – | > 10 µM (inactive) | > 10 µM (inactive) | > 10 µM (inactive) | > 10 µM (inactive) | > 10 µM (inactive) | > 10 µM (inactive) | > 10 µM (inactive) | > 10 µM (inactive) | > 10 µM (inactive) | > 10 µM (inactive) | > 10 µM (inactive) | > 10 µM (inactive) | > 10 µM (inactive) | > 10 µM (inactive) |
| Cc1nn2c(C(=O)N/N=C/c3ccccc3O)c(C)nc2s1 | > 100 µM (inactive) | > 100 µM (inactive) | – | > 100 µM (inactive) | > 100 µM (inactive) | > 100 µM (inactive) | > 100 µM (inactive) | > 100 µM (inactive) | 85.9 µM (inactive) | 89.3 µM (inactive) | > 100 µM (inactive) | > 100 µM (inactive) | > 100 µM (inactive) | 3.09 µM (inactive) | 53 µM (inactive) | > 100 µM (inactive) | – | > 100 µM (inactive) | > 100 µM (inactive) | > 100 µM (inactive) |
| O=C(/C=C/c1ccc(Oc2cc(C(=O)/C=C/c3ccc(O)cc3)c(O)cc2O)cc1)c1ccc(O)cc1O [RHUSCHALCONE II] | 5.27 µM (inactive) | 1.92 µM (inactive) | 7.6 µM (inactive) | 4.15 µM (inactive) | 13.2 µM (inactive) | 4.97 µM (inactive) | 2.52 µM (inactive) | 15.5 µM (inactive) | 5.96 µM (inactive) | – | 4.98 µM (inactive) | 12.7 µM (inactive) | 4.63 µM (inactive) | 3.42 µM (inactive) | 10.3 µM (inactive) | 4.82 µM (inactive) | 3.17 µM (inactive) | 6.3 µM (inactive) | 4.62 µM (inactive) | 16.5 µM (inactive) |
| ClC1=C(Cl)C2OC3C=CCC3OC2C(Cl)=C1Cl (stereo unspecified) | > 100 µM (inactive) | 21.3 µM (inactive) | 18.8 µM (inactive) | 56.9 µM (inactive) | 44.1 µM (inactive) | 28.4 µM (inactive) | > 100 µM (inactive) | – | > 100 µM (inactive) | 95.3 µM (inactive) | > 100 µM (inactive) | 34.5 µM (inactive) | – | > 100 µM (inactive) | > 100 µM (inactive) | 32.2 µM (inactive) | > 100 µM (inactive) | > 100 µM (inactive) | – | 28.8 µM (inactive) |
| NC(=O)NC(=O)CCC(NS(=O)(=O)c1ccccc1)C(=O)NC(N)=O (stereo unspecified) | > 100 µM (inactive) | > 100 µM (inactive) | > 100 µM (inactive) | > 100 µM (inactive) | > 100 µM (inactive) | – | > 100 µM (inactive) | > 100 µM (inactive) | > 100 µM (inactive) | > 100 µM (inactive) | > 100 µM (inactive) | > 100 µM (inactive) | > 100 µM (inactive) | > 100 µM (inactive) | > 100 µM (inactive) | > 100 µM (inactive) | > 100 µM (inactive) | > 100 µM (inactive) | > 100 µM (inactive) | > 100 µM (inactive) |
| COc1cc(Br)cc2cc(-c3cn4c(n3)sc3ccccc34)c(=O)oc12 | 39 µM (inactive) | 29.5 µM (inactive) | 22.3 µM (inactive) | 24.4 µM (inactive) | 14.5 µM (inactive) | – | – | 36.5 µM (inactive) | 19.8 µM (inactive) | – | 26.1 µM (inactive) | 38.5 µM (inactive) | – | 20 µM (inactive) | 24.4 µM (inactive) | 14.5 µM (inactive) | 30.1 µM (inactive) | 18.7 µM (inactive) | 22.6 µM (inactive) | 14.7 µM (inactive) |
| N#C/C=C(/NC(=O)Nc1ccccc1)N1CCCC1 | > 65.6 µM (inactive) | > 72.6 µM (inactive) | > 32.9 µM (inactive) | > 68.9 µM (inactive) | > 59.7 µM (inactive) | > 100 µM (inactive) | > 47.9 µM (inactive) | > 40.7 µM (inactive) | > 31.5 µM (inactive) | > 42 µM (inactive) | 34.6 µM (inactive) | 45.6 µM (inactive) | – | > 100 µM (inactive) | > 49 µM (inactive) | > 47.4 µM (inactive) | > 100 µM (inactive) | > 89.3 µM (inactive) | > 82.6 µM (inactive) | > 48 µM (inactive) |
| [N-]=[N+]=NCN1C(=O)C2C3C=CC(C2C1=O)C1C2C(=O)N(CN=[N+]=[N-])C(=O)C2C31 (stereo unspecified) | – | > 100 µM (inactive) | > 100 µM (inactive) | > 100 µM (inactive) | > 100 µM (inactive) | – | > 100 µM (inactive) | > 100 µM (inactive) | 60 µM (inactive) | – | – | > 100 µM (inactive) | – | > 100 µM (inactive) | > 100 µM (inactive) | > 100 µM (inactive) | – | > 100 µM (inactive) | > 100 µM (inactive) | 12.5 µM (inactive) |
| COc1cccc(-c2nc(-c3cnccn3)n(C3OC(CO)C(O)C3O)n2)c1 (stereo unspecified) | > 100 µM (inactive) | > 100 µM (inactive) | – | > 100 µM (inactive) | > 100 µM (inactive) | – | > 100 µM (inactive) | > 100 µM (inactive) | > 100 µM (inactive) | – | > 100 µM (inactive) | > 100 µM (inactive) | > 100 µM (inactive) | > 100 µM (inactive) | > 100 µM (inactive) | > 100 µM (inactive) | > 100 µM (inactive) | > 100 µM (inactive) | > 100 µM (inactive) | > 100 µM (inactive) |
| N=C(N)NCCNC(=N)N | > 100 µM (inactive) | > 100 µM (inactive) | > 100 µM (inactive) | > 100 µM (inactive) | > 100 µM (inactive) | > 100 µM (inactive) | > 100 µM (inactive) | > 100 µM (inactive) | > 100 µM (inactive) | – | > 100 µM (inactive) | > 100 µM (inactive) | 89.9 µM (inactive) | > 100 µM (inactive) | > 100 µM (inactive) | > 100 µM (inactive) | > 100 µM (inactive) | > 100 µM (inactive) | > 100 µM (inactive) | > 100 µM (inactive) |
| COC(=O)c1c2c(cc3c1CC1(Cc4ccccc4C1)C3)CCC2 | 25.2 µM (inactive) | 13.8 µM (inactive) | – | 8.91 µM (inactive) | 25.6 µM (inactive) | 16.9 µM (inactive) | 24.2 µM (inactive) | 28.7 µM (inactive) | 24.5 µM (inactive) | 31.7 µM (inactive) | 37.8 µM (inactive) | 17.6 µM (inactive) | 26.2 µM (inactive) | 18.9 µM (inactive) | – | 14 µM (inactive) | 31.4 µM (inactive) | 13 µM (inactive) | 20.9 µM (inactive) | 36.9 µM (inactive) |
